Several values for one entry are separate records, joined by “and”; a condition that tells them apart may be missing. Equal values may be shown once. Inconclusive results and toxic doses are left out.
Test system: BDF1 mice, B16 melanoma ip, median survival T/C
Assay: NCI In Vivo Anticancer Drug Screen. Data for tumor model B16 Melanoma (intraperitoneal) in B6D2F1 (BDF1) mice
Conditions: endpoint: median survival time, higher = longer survival
Procedure, shortened: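 In this screen, activity was judged from survival or tumor size in treated versus vehicle-treated tumor-bearing mice, reported as T/C.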

[1] = dose: 8.0 mg/kg/injection, schedule: Q01DX001 (ip), vehicle: water
[2] = dose: 50.0 mg/kg/injection, schedule: Q01DX009 (ip), vehicle: saline with Tween-80
[3] = dose: 100.0 mg/kg/injection, schedule: Q01DX009 (ip), vehicle: saline with Tween-80
[4] = dose: 200.0 mg/kg/injection, schedule: Q01DX009 (ip), vehicle: saline with Tween-80
[5] = dose: 50.0 mg/kg/injection, schedule: Q01DX009 (ip), vehicle: Klucel (hydroxypropylcellulose) (HPC)
[6] = dose: 100.0 mg/kg/injection, schedule: Q01DX009 (ip), vehicle: Klucel (hydroxypropylcellulose) (HPC)
[7] = dose: 200.0 mg/kg/injection, schedule: Q01DX009 (ip), vehicle: Klucel (hydroxypropylcellulose) (HPC)

Compound: CC[C@@]1(O)C[C@H](OC2CC(N(C)C)C(OC3CC(O)C(OC4CCC(=O)C(C)O4)C(C)O3)C(C)O2)c2c(cc3c(c2O)C(=O)c2c(O)cccc2C3=O)[C@H]1C(=O)OC (stereo partly drawn)
- T/C (dose: 0.75 mg/kg/injection, schedule: Q01DX001 (ip), vehicle: water): 100 % of control and 106 % of control and 112 % of control
- T/C (dose: 0.75 mg/kg/injection, schedule: Q01DX009 (ip), vehicle: Klucel (hydroxypropylcellulose) (HPC)): 123 % of control
- T/C (dose: 1.5 mg/kg/injection, schedule: Q01DX001 (ip), vehicle: water): 105 % of control and 112 % of control and 120 % of control
- T/C (dose: 1.56 mg/kg/injection, schedule: Q01DX001 (ip), vehicle: water): 103 % of control
- T/C (dose: 2.16 mg/kg/injection, schedule: Q01DX001 (ip), vehicle: water): 95 % of control and 97 % of control
- T/C (dose: 3.0 mg/kg/injection, schedule: Q01DX001 (ip), vehicle: water): 110 % of control and 124 % of control
- T/C (dose: 3.0 mg/kg/injection, schedule: Q01DX009 (ip), vehicle: saline): 160 % of control
- T/C (dose: 3.13 mg/kg/injection, schedule: Q01DX001 (ip), vehicle: water): 110 % of control
- T/C (dose: 3.6 mg/kg/injection, schedule: Q01DX001 (ip), vehicle: water): 91 % of control and 101 % of control
- T/C (dose: 6.25 mg/kg/injection, schedule: Q01DX001 (ip), vehicle: water): 124 % of control
- T/C [1]: 106 % of control and 120 % of control
- T/C (dose: 10.0 mg/kg/injection, schedule: Q01DX001 (ip), vehicle: water): 100 % of control
- T/C (dose: 12.0 mg/kg/injection, schedule: Q01DX001 (ip), vehicle: water): 110 % of control and 124 % of control
- T/C (dose: 12.5 mg/kg/injection, schedule: Q01DX001 (ip), vehicle: water): 114 % of control and 121 % of control
- T/C (dose: 25.0 mg/kg/injection, schedule: Q01DX001 (ip), vehicle: water): 98 % of control

Compound: C=CCN(CC=C)c1ccc(N(CC)CC)cc1
- T/C (dose: 25.0 mg/kg/injection, schedule: Q04DX003 (ip), vehicle: Klucel (hydroxypropylcellulose) (HPC)): 99 % of control
- T/C (dose: 50.0 mg/kg/injection, schedule: Q04DX003 (ip), vehicle: Klucel (hydroxypropylcellulose) (HPC)): 102 % of control
- T/C (dose: 100.0 mg/kg/injection, schedule: Q04DX003 (ip), vehicle: Klucel (hydroxypropylcellulose) (HPC)): 88 % of control and 89 % of control

Compound: O=CNC(Cc1cnc[nH]1)C(=O)O (stereo not drawn)
- T/C [2]: 102 % of control
- T/C [3]: 100 % of control
- T/C [4]: 103 % of control
- T/C (dose: 400.0 mg/kg/injection, schedule: Q01DX009 (ip), vehicle: saline with Tween-80): 100 % of control

Compound: C#CCOCC(O)CN (stereo not drawn)
- T/C (dose: 100.0 mg/kg/injection, schedule: Q04DX003 (ip), vehicle: saline): 104 % of control
- T/C (dose: 200.0 mg/kg/injection, schedule: Q04DX003 (ip), vehicle: saline): 100 % of control
- T/C (dose: 400.0 mg/kg/injection, schedule: Q04DX003 (ip), vehicle: saline): 102 % of control

Compound: CC[PH+](CC)CC[S-].CC[PH+](CC)CC[S-].[Au+].[Au+]
- T/C (dose: 2.5 mg/kg/injection, schedule: Q01DX009 (ip), vehicle: Klucel (hydroxypropylcellulose) (HPC)): 109 % of control
- T/C (dose: 5.0 mg/kg/injection, schedule: Q01DX009 (ip), vehicle: Klucel (hydroxypropylcellulose) (HPC)): 112 % of control
- T/C (dose: 10.0 mg/kg/injection, schedule: Q01DX009 (ip), vehicle: Klucel (hydroxypropylcellulose) (HPC)): 118 % of control
- T/C (dose: 20.0 mg/kg/injection, schedule: Q01DX009 (ip), vehicle: Klucel (hydroxypropylcellulose) (HPC)): 112 % of control
- T/C (dose: 40.0 mg/kg/injection, schedule: Q01DX009 (ip), vehicle: Klucel (hydroxypropylcellulose) (HPC)): 110 % of control

Compound: O=C1c2c(O)ccc(O)c2C(=O)c2c(NCCNCCO)ccc(NCCNCCO)c21
- T/C (dose: 0.13 mg/kg/injection, schedule: Q01DX009 (ip), vehicle: saline with Tween-80): 110 % of control
- T/C (dose: 0.25 mg/kg/injection, schedule: Q01DX009 (ip), vehicle: saline): 186 % of control and 188 % of control
- T/C (dose: 0.25 mg/kg/injection, schedule: Q01DX009 (ip), vehicle: water): 157 % of control and 160 % of control and 174 % of control
- T/C (dose: 0.25 mg/kg/injection, schedule: Q01DX009 (oral), vehicle: acid diluted with saline): 98 % of control
- T/C (dose: 0.5 mg/kg/injection, schedule: Q01DX009 (ip), vehicle: saline): 218 % of control
- T/C (dose: 0.5 mg/kg/injection, schedule: Q01DX009 (ip), vehicle: water): 218 % of control and 225 % of control and 247 % of control
- T/C (dose: 0.5 mg/kg/injection, schedule: Q01DX009 (oral), vehicle: acid diluted with saline): 104 % of control
- T/C (dose: 1.0 mg/kg/injection, schedule: Q01DX009 (ip), vehicle: saline with Tween-80): 152 % of control and 156 % of control
- T/C (dose: 1.0 mg/kg/injection, schedule: Q01DX009 (ip), vehicle: saline): 260 % of control and 267 % of control
- T/C (dose: 1.0 mg/kg/injection, schedule: Q01DX009 (ip), vehicle: water): 121 % of control and 202 % of control and 261 % of control
- T/C (dose: 1.25 mg/kg/injection, schedule: Q01DX001 (ip), vehicle: acid diluted with saline): 153 % of control
- T/C (dose: 2.0 mg/kg/injection, schedule: Q01DX001 (ip), vehicle: water): 212 % of control
- T/C (dose: 2.0 mg/kg/injection, schedule: Q01DX009 (ip), vehicle: saline): 207 % of control and 251 % of control
- T/C (dose: 2.0 mg/kg/injection, schedule: Q01DX009 (ip), vehicle: water): 221 % of control
- T/C (dose: 2.5 mg/kg/injection, schedule: Q01DX001 (ip), vehicle: acid diluted with saline): 123 % of control and 205 % of control
- T/C (dose: 4.0 mg/kg/injection, schedule: Q01DX001 (ip), vehicle: water): 202 % of control
- T/C [1]: 303 % of control

Compound: COc1ccc(OC)c(NC=O)c1
- T/C (dose: 6.25 mg/kg/injection, schedule: Q01DX009 (ip), vehicle: saline with Tween-80): 91 % of control
- T/C (dose: 12.5 mg/kg/injection, schedule: Q01DX009 (ip), vehicle: saline with Tween-80): 106 % of control
- T/C (dose: 25.0 mg/kg/injection, schedule: Q01DX009 (ip), vehicle: saline with Tween-80): 90 % of control and 97 % of control

Compound: O=C1CCC2(CCC(=O)c3ccccc32)C(=O)N1 (stereo not drawn)
- T/C [5]: 119 % of control
- T/C [6]: 114 % of control
- T/C [7]: 116 % of control

Compound: O=C1c2ccccc2C(=O)c2c(NCCN3CCNCC3)ccc(NCCN3CCNCC3)c21
- T/C (dose: 8.0 mg/kg/injection, schedule: Q01DX009 (ip), vehicle: acid diluted with saline): 106 % of control
- T/C (dose: 16.0 mg/kg/injection, schedule: Q01DX009 (ip), vehicle: acid diluted with saline): 104 % of control
- T/C (dose: 32.0 mg/kg/injection, schedule: Q01DX009 (ip), vehicle: acid diluted with saline): 104 % of control
- T/C (dose: 64.0 mg/kg/injection, schedule: Q01DX009 (ip), vehicle: acid diluted with saline): 96 % of control

Compound: C=C1C(O)C2(O)OCC34C(CC5C(C)=CC(=O)C(O)C5(C)C23)OC(=O)C(OC(=O)C(C)(O)CC)C14 (stereo not drawn)
- T/C (dose: 0.06 mg/kg/injection, schedule: Q01DX009 (ip), vehicle: saline + alcohol): 109 % of control
- T/C (dose: 1.0 mg/kg/injection, schedule: Q01DX009 (ip), vehicle: saline + alcohol): 163 % of control

Compound: Cc1oc2c(c(=O)c1C)C1CCC(C2)N1C (stereo not drawn)
- T/C (dose: 25.0 mg/kg/injection, schedule: Q01DX009 (ip), vehicle: Klucel (hydroxypropylcellulose) (HPC)): 103 % of control
- T/C [5]: 103 % of control
- T/C [6]: 97 % of control

Compound: Cc1ccc(NC(=O)C(Cl)(Cl)Cl)cc1C
- T/C [6]: 96 % of control
- T/C [7]: 96 % of control
- T/C (dose: 400.0 mg/kg/injection, schedule: Q01DX009 (ip), vehicle: Klucel (hydroxypropylcellulose) (HPC)): 96 % of control

Compound: Cc1ccc(C(=O)C=C(C(F)(F)F)C(F)(F)F)cc1
- T/C (dose: 6.25 mg/kg/injection, schedule: Q04DX003 (ip), vehicle: saline with Tween-80): 111 % of control
- T/C (dose: 12.5 mg/kg/injection, schedule: Q04DX003 (ip), vehicle: saline with Tween-80): 100 % of control
- T/C (dose: 25.0 mg/kg/injection, schedule: Q04DX003 (ip), vehicle: saline with Tween-80): 105 % of control

Compound: CSc1nc(C)cc(Cl)n1
- T/C [2]: 104 % of control
- T/C [3]: 113 % of control
- T/C [4]: 90 % of control

Compound: C=C(C)C12CC(C)C34OC(CCCCCCCCCCC)(OC1C3C1OC1(CO)C(O)C1(O)C(=O)C(C)=CC14C)O2 (stereo not drawn)
- T/C (dose: 0.05 mg/kg/injection, schedule: Q01DX009 (ip), vehicle: distilled water + Tween-80): 103 % of control
- T/C (dose: 0.1 mg/kg/injection, schedule: Q01DX009 (ip), vehicle: distilled water + Tween-80): 102 % of control
- T/C (dose: 0.2 mg/kg/injection, schedule: Q01DX009 (ip), vehicle: distilled water + Tween-80): 91 % of control
- T/C (dose: 0.4 mg/kg/injection, schedule: Q01DX009 (ip), vehicle: distilled water + Tween-80): 90 % of control

Compound: Cc1ccc(NC(=O)c2ccccc2Cl)cc1Cl
- T/C (dose: 75.0 mg/kg/injection, schedule: Q01DX009 (ip), vehicle: Klucel (hydroxypropylcellulose) (HPC)): 103 % of control
- T/C (dose: 150.0 mg/kg/injection, schedule: Q01DX009 (ip), vehicle: Klucel (hydroxypropylcellulose) (HPC)): 103 % of control
- T/C (dose: 300.0 mg/kg/injection, schedule: Q01DX009 (ip), vehicle: Klucel (hydroxypropylcellulose) (HPC)): 100 % of control

Reference: PubChem BioAssay AID192 (DTP/NCI, 2004)
